Legend:
[1] = test system: cumulus enclosed oocytes (CEO); assay: Oocyte assay, antagonistic testing, inhibition of 22S-hydroxy-FF-Mas induced maturation in cumulus enclosed oocytes (CEO assay); assay type: cell-based, mice (B6D2-F1, strain C57BL×DBA); conditions: 22S-hydroxy-FF-Mas 5 μM, control (22S-hydroxy-FF-Mas alone) in brackets
Method: The meiosis inhibiting activity of the 22R-hydroxycholesta-8,14-diene derivatives of the invention is measured in an in vitro oocyte assay as the ability to inhibit the FF-Mas or 22S-hydroxy-FF-Mas induced maturation, in hypoxanthine media, in denuded oocytes (DO) or cumulus enclosed oocytes (CEO), respectively. Natural resumption of meiosis can be mimicked in vitro by addition of FF-Mas or other agonists to the culture medium containing hypoxanthine. The antagonistic activity of the compounds is measured as the ability to inhibit the FF-Mas or 22S-hydroxy-FF-Mas induced oocyte maturation in denuded oocytes or cumulus enclosed oocytes, respectively, in vitro. Ovaries are obtained from immature female mice (B6D2-F1, strain C57BL×DBA). At the age of 19, 20 or 21 days the mice are injected subcutaneously with a single dose of 20 IU follicle stimulating hormone (Humegon, Organon, The Netherlands) in saline. Forty-eight hours after follicle stimulating hormone injection mice are killed by cervical dislocation. The ovaries are removed, freed of extraneous tissue and placed in a multidish containing 0.5 ml preparation medium at 37° C. L-15 Leibovitz medium (Gibco, pH 7.3±0.1) supplemented with bovine serum albumin (3 mg·ml^−1), L-glutamine (0.23 mM), sodium pyruvate (2 mM) and hypoxanthine (4 mM) is used as preparation medium. The antral follicles of the ovaries are punctured under a dissecting microscope using two 27-gauge needles attached to two 1 ml syringes. […] At t=0 the number of oocytes with intact germinal vesicles (GV) or germinal vesicle break-down (GVBD) is counted under an inverted microscope with differential interference contrast equipment. […] At the end of the culture period the number of oocytes with GV or GVBD per group is counted. For statistical analysis the percentage germinal vesicle breakdown is calculated for each group in one block. These percentages are subjected to arcsin transformation, and differences between control and test compounds are analyzed by an ANOVA test for a randomized block design. […]

[2] = test system: cumulus enclosed oocytes (CEO); assay: Oocyte assay, agonistic testing, cumulus enclosed oocytes (CEO assay); assay type: cell-based, mice (B6D2-F1, strain C57BL×DBA); conditions: compound 5 μM, hypoxanthine medium, 22 hours culture, control value in brackets
Source text: Oocytes arrested in meiosis contain diffused chromosomes which are surrounded by an intact nuclear envelope known as the germinal vesicle (GV). Upon reinitiation of meiosis by the midcycle gonadotropin surge, the chromosomes recondense and the GV breaks down (GVBD). In vivo, the oocyte is exposed to hypoxanthine (HX), which maintains the oocyte arrested in the meiotic prophase. This meiotic arrest can be mimicked in vitro by addition of hypoxanthine to the culture medium. The agonistic activity of meiosis activating substances is measured as the ability to overcome the hypoxanthine maintained meiotic arrest in denuded oocytes (DO) or cumulus enclosed oocytes (CEO), i.e. as the ability to induce meiotic resumption in vitro.
Ovaries are obtained from immature female mice (B6D2-F1, strain C57BL×DBA). At the age of 19, 20 or 21 days the mice are injected subcutaneously with a single dose of 20 IU follicle stimulating hormone (Humegon, Organon, The Netherlands) in saline.
Forty-eight hours after follicle stimulating hormone injection mice are killed by cervical dislocation. The ovaries are removed, freed of extraneous tissue and placed in a multidish containing 0.5 ml preparation medium at 37° C. L-15 Leibovitz medium (Gibco, pH 7.3±0.1) supplemented with bovine serum albumin (3 mg·ml^−1), L-glutamine (0.23 mM), sodium pyruvate (2 mM) and hypoxanthine (4 mM) is used as preparation medium. […]
The oocyte assay is performed in 3 blocks, each block represents the ovaries of one mouse (randomized block design). […] At t=0 the number of oocytes with intact germinal vesicles (GV) or germinal vesicle break-down (GVBD) is counted under an inverted microscope with differential interference contrast equipment. […] At the end of the culture period the number of oocytes with GV or GVBD per group is counted. For statistical analysis the percentage germinal vesicle breakdown is calculated for each group in one block. These percentages are subjected to arcsin transformation, and differences between control and test compounds are analyzed by an ANOVA test for a randomized block design. […]

SMILES | % GVBD CEO assay exp. [1] | % GVBD CEO assay exp. [2] | % GVBD CEO assay exp. ([1]; compound tested 5 M)
CC(C)=CC[C@@H](O)[C@@H](C)[C@H]1CC=C2C3=C(CC[C@@]21C)[C@@]1(C)CC[C@H](O)C(C)(C)[C@@H]1CC3 [Example 2, (3β,5α,20S,22R)-4,4-Dimethylcholesta-8,14,24-triene-3,22-diol] | 0(84)^4% | 2(2) % | –
CC(C)CC[C@@H](O)[C@@H](C)[C@H]1CC=C2C3=C(CC[C@@]21C)[C@@]1(C)CC[C@H](O)C(C)(C)[C@@H]1CC3 [Example 1, (3β,5α,20S,22R)-4,4-Dimethylcholesta-8,14-diene-3,22-diol] | – | – | 10(93)^3%

From patent US6518262B1, “22R-hydroxycholesta-8, 14-diene derivatives for the inhibition of meiosis” (Akzo Nobel N.V., priority 1999, dated 2003)
